This note sets out measurements from patent US7713994B2 (Wyeth LLC, priority 2005, dated 2010).

In one assay the test system is MCF-7. As to the kind of experiment: Cytotoxicity assay (SRB), MCF-7. The class given is cell-based. The conditions noted are these: Homo sapiens, MCF7, 72 h, MCF-7 cells, SRB, read-out: In Vitro Cellular Activity IC50 MCF-7. On the procedure:
(§1) BT474, HCT-116, LoVo and MCF-7 were maintained under 7% CO2 in RPMI 1640 medium supplemented with 10% fetal bovine serum and 50 µg/ml gentamicin.
(§2) Cells were plated in 96-well microtiter dishes (12000 cells/well for BT474, 4000 cells/well for HCT-116, 6000 cells/well for LoVo and 6000 cells/well for MCF-7) in RPMI 1640 medium containing 5% fetal bovine serum and 50 µg/ml gentamicin. The cells were allowed to incubate overnight at 37° C., 7% CO2. Compound dilutions were prepared using the same medium. HCT-116, LoVo and MCF-7 cells were cultured for three days and BT474 cells were cultured for 6 days, in the presence of each compound dilution. Untreated cells were included as controls. The percentage of surviving cells was determined using a protein binding dye (sulforhodamineB, SRB) assay. Cellular protein was precipitated in each well by the addition of 0.05 ml of 50% cold trichloroacetic acid (TCA). After 1 hour, the plates were washed extensively in dH2O and dried. The sulforhodamineB dye solution (0.08 mL of 0.4% SRB in 1% acetic acid) was added to each well, kept at room temperature for ten minutes, then washed in 1% acetic acid and dried. The dye was dissolved in 10 mM Tris-HCl (150 uL) and the absorbency read at 540 nm.

A further assay relates to BT474. Put plainly: Cytotoxicity assay (SRB), BT474. The class given is cell-based. On the procedure: as §1, §2
For the next assay, the system named is LoVo. Put plainly: Cytotoxicity assay (SRB), LoVo. The class given is cell-based. As to conditions: Homo sapiens, LoVo, 72 h, LoVo cells, SRB, read-out: In Vitro Cellular Activity IC50 LOVO. On the procedure:
as §1, §2

The subject of another assay is HCT-116. As to the kind of experiment: Cytotoxicity assay (SRB), HCT-116. The class given is cell-based. The conditions noted are these: Homo sapiens, HCT-116, 72 h, HCT116 cells, SRB, read-out: In Vitro Cellular Activity IC50 HCT116. On the procedure: as §1, §2
Another assay addresses T1, cyclin D1/cdk 4 enzyme (Homo sapiens, UniProt P11802).
T1 construct: made in house; host or cells: Sf9 insect cells, recombinant baculovirus
Put plainly: CDK4 ELISA kinase assay (phospho-Rb ser 795 detection). The class given is biochemical. As to conditions: In Vitro Enzyme Assay, cyclin D1/cdk 4, read-out: CDK4 IC50. An outline of the steps: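 Screening was done at 10 ug/ml compound. Each partially purified cyclin/CDK complex, produced in baculovirus-infected Sf9 cells, phosphorylated a coated GST-Rb C-terminal fragment with 200 μM ATP, and Ser795 phosphorylation was quantified by HRP-ELISA at 450 nm.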
A general note: ELISA stands for enzyme-linked immunosorbent assay.

Setting [1] is: Homo sapiens, BT-474, 144 h, BT474 cells, 6 days, SRB; read-out: In Vitro Cellular Activity IC50 BT474.

pIC50: −log10 of the molar value. Like-named read-outs stand apart in the source and are kept apart here.

T1 sequence (P11802 whole entry, species assumed): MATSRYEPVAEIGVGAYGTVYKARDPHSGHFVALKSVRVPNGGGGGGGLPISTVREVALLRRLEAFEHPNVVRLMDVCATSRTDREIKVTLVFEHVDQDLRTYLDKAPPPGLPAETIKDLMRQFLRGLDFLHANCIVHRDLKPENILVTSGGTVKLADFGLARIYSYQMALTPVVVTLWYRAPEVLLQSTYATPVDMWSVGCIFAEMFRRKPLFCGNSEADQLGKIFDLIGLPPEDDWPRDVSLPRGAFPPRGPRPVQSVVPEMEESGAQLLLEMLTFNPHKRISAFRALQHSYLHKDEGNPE
T1 sequence (P24385 whole entry partner, species assumed): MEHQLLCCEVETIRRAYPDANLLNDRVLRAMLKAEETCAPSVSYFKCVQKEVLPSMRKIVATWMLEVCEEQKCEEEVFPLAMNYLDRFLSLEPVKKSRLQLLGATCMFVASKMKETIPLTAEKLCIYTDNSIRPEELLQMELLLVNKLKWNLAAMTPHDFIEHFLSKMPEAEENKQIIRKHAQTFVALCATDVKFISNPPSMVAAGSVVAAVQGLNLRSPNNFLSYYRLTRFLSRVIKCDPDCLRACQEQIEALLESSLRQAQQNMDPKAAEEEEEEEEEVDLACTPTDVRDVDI

In general, pIC50 refers to the IC50 on a negative log10 scale, so that one unit is a factor of ten. On to `CN1CCN(c2ccc(N/C=C3\C(=O)NC(C)(C)c4ccc(-c5ccoc5)cc43)cc2)CC1` [Example 458, 6-Furan-3-yl-1,1-dimethyl-4-{[4-(4-methyl-piperazin-1-yl)-phenylamino]-methylene}-1,4-dihydro-2H-isoquinolin-3-one], for which the pIC50 in the assay on MCF-7 (3 days) was 5.38; in the assay on BT474 (setting [1]), 5.46; in the assay with LoVo (3 days) it was 5.92; in the assay with HCT-116 (3 days) it was 5.57.
With `CC(C)(C)OC(=O)N1CCCC1c1ccc(N/C=C2\C(=O)NC(=O)c3ccc(I)cc32)cc1` (centres unmarked) [Example 461, 2-{4-[(6-Iodo-1,3-dioxo-2,3-dihydro-1H-isoquinolin-4-ylidenemethyl)-amino]-phenyl}-pyrrolidine-1-carboxylic acid tert-butyl ester], the pIC50 in the assay with MCF-7 (3 days) was 4.63; in the assay on BT474 (setting [1]) it was 5.11; with LoVo (3 days), 4.62; with HCT-116 (3 days) it was 4.64.
Regarding `COc1cnc(CN/C=C2\C(=O)NC(=O)c3ccc(I)cc32)nc1O` [Example 479, 4-{[(4-Hydroxy-5-methoxy-pyrimidin-2-ylmethyl)-amino]-methylene}-6-iodo-4H-isoquinoline-1,3-dione], the pIC50 with MCF-7 (3 days) is below 4.30; in the assay on BT474 (setting [1]), 4.37; in the assay on LoVo (3 days) it was below 4.30; with HCT-116 (3 days), below 4.30.
Take `O=C1NC(=O)c2ccc(I)cc2/C1=C/NCc1ccc(-c2ccccn2)c(O)c1` [Example 509, 4-[(3-Hydroxy-4-pyridin-2-yl-benzylamino)-methylene]-6-iodo-4H-isoquinoline-1,3-dione]: the pIC50 with MCF-7 (3 days) is 6.27; with BT474 (setting [1]) it was 6.89; with LoVo (3 days), 6.72; in the assay on HCT-116 (3 days), 6.60.
As to `O=C1NC(=O)c2ccc(I)cc2/C1=C/NCc1ccc(-c2ccncc2)c(O)c1` [Example 511, 4-[(3-Hydroxy-4-pyridin-4-yl-benzylamino)-methylene]-6-iodo-4H-isoquinoline-1,3-dione], the pIC50 in the assay on MCF-7 (3 days) was 5.82; in the assay with BT474 (setting [1]) it was 5.60; in the assay on LoVo (3 days), 5.60; with HCT-116 (3 days) it was 5.64.
Regarding `N#CCc1ccc(NC=C2C(=O)NC(=O)c3ccc(-c4cc5ccccc5o4)cc32)cc1` [Example 626, {4-[(6-Benzofuran-2-yl-1,3-dioxo-2,3-dihydro-1H-isoquinolin-4-ylidenemethyl)-amino]-phenyl}-acetonitrile], the pIC50 in the assay on MCF-7 (3 days) is 4.47; at cyclin D1/cdk 4 enzyme it was 5.43; in the assay with BT474 (setting [1]), below 4.30; in the assay on LoVo (3 days) it was below 4.30; with HCT-116 (3 days), below 4.30.
`N#CCc1ccc(NC=C2C(=O)NC(=O)c3ccc(-c4cc5ccccc5s4)cc32)cc1` [Example 627, {4-[(6-Benzo[b]thiophen-2-yl-1,3-dioxo-2,3-dihydro-1H-isoquinolin-4-ylidenemethyl)-amino]-phenyl}-acetonitrile]: the pIC50 was 5.14 with MCF-7 (3 days); 4.98 on cyclin D1/cdk 4 enzyme; 5.37 in the assay on BT474 (setting [1]); below 4.30 in the assay on LoVo (3 days); below 4.30 in the assay on HCT-116 (3 days).
In the case of `N#CCc1ccc(NC=C2C(=O)NC(=O)c3ccc(-c4ccc5[nH]ccc5c4)cc32)cc1` [Example 629, (4-{[6-(1H-Indol-5-yl)-1,3-dioxo-2,3-dihydro-1H-isoquinolin-4-ylidenemethyl]-amino}-phenyl)-acetonitrile], the pIC50 with MCF-7 (3 days) was 4.30; at cyclin D1/cdk 4 enzyme, 5.26; with BT474 (setting [1]), below 4.30; in the assay on LoVo (3 days), below 4.30; in the assay on HCT-116 (3 days) it was below 4.30.
Regarding `NS(=O)(=O)c1ccc(CNC=C2C(=O)NC(=O)c3ccc(-c4ccc5ccccc5c4)cc32)cc1` [Example 632, 4-{[(6-Naphthalen-2-yl-1,3-dioxo-2,3-dihydro-1H-isoquinolin-4-ylidenemethyl)-amino]-methyl}-benzenesulfonamide], the pIC50 in the assay with MCF-7 (3 days) is 4.76; on cyclin D1/cdk 4 enzyme, 5.51; with BT474 (setting [1]), below 4.30; in the assay with LoVo (3 days), 4.35; in the assay with HCT-116 (3 days) it was below 4.30.
Consider `NS(=O)(=O)c1ccc(CNC=C2C(=O)NC(=O)c3ccc(-c4cc5ccccc5o4)cc32)cc1` [Example 634, 4-{[(6-Benzofuran-2-yl-1,3-dioxo-2,3-dihydro-1H-isoquinolin-4-ylidenemethyl)-amino]-methyl}-benzenesulfonamide], for which the pIC50 was below 4.30 with MCF-7 (3 days); 5.00 at cyclin D1/cdk 4 enzyme; 4.32 in the assay on BT474 (setting [1]); 5.07 in the assay with LoVo (3 days); 4.72 in the assay with HCT-116 (3 days).
Turning to `NS(=O)(=O)c1ccc(CNC=C2C(=O)NC(=O)c3ccc(-c4csc5ccccc45)cc32)cc1` [Example 636, 4-{[(6-Benzo[b]thiophen-3-yl-1,3-dioxo-2,3-dihydro-1H-isoquinolin-4-ylidenemethyl)-amino]-methyl}-benzenesulfonamide], the pIC50 was 4.74 with MCF-7 (3 days); 5.47 on cyclin D1/cdk 4 enzyme; 4.40 with BT474 (setting [1]); 4.80 in the assay with LoVo (3 days); 4.51 in the assay on HCT-116 (3 days).
The like results for `O=C1NC(=O)c2ccc(-c3csc4ccccc34)cc2C1=CNCc1ccc(O)c(O)c1` [Example 645, 6-Benzo[b]thiophen-3-yl-4-[(3,4-dihydroxy-benzylamino)-methylene]-4H-isoquinoline-1,3-dione] were, in that order, 5.06, 5.66, 4.81, 5.14 and 5.05.
As for `N#CCc1ccc(NC=C2C(=O)NC(=O)c3ccc(C=Cn4ccnc4)cc32)cc1` [Example 651, (4-{[6-(2-Imidazol-1-yl-vinyl)-1,3-dioxo-2,3-dihydro-1H-isoquinolin-4-ylidenemethyl]-amino}-phenyl)-acetonitrile], the pIC50 in the assay on MCF-7 (3 days) is 4.43; at cyclin D1/cdk 4 enzyme, 5.52; with BT474 (setting [1]) it was below 4.30; in the assay on LoVo (3 days), below 4.30; in the assay with HCT-116 (3 days), below 4.30.
As for `O=C1NCc2cc(Cl)ccc2C1=CNc1cccc(O)c1` [Example 856, 7-Chloro-4-[(3-hydroxy-phenylamino)-methylene]-1,4-dihydro-2H-isoquinolin-3-one], the pIC50 was 5.42 in the assay with MCF-7 (3 days), 5.25 with BT474 (setting [1]), 4.87 in the assay on LoVo (3 days) and 4.91 in the assay with HCT-116 (3 days).
The like results for `Cc1ccc2c(c1)CNC(=O)C2=CNc1ccc(N2CCOCC2)cc1` [Example 858, 7-Methyl-4-[(4-morpholin-4-yl-phenylamino)-methylene]-1,4-dihydro-2H-isoquinolin-3-one] were, in that order, 4.46, 4.46, 4.41 and 4.42.
The like results for `O=C1NCc2ccccc2C1=CNc1cccc(O)c1` [Example 859, 4-[(3-Hydroxy-phenylamino)-methylene]-1,4-dihydro-2H-isoquinolin-3-one] were, in that order, 4.69, 4.51, 4.40 and 4.39.
Consider `O=C1NCc2ccccc2C1=CNc1ccc(N2CCCCC2)cc1` [Example 860, 4-[(4-Piperidin-1-yl-phenylamino)-methylene]-1,4-dihydro-2H-isoquinolin-3-one], for which the pIC50 is 4.40 in the assay with MCF-7 (3 days), 4.45 in the assay on BT474 (setting [1]), 4.44 with LoVo (3 days) and 4.48 in the assay on HCT-116 (3 days).
On to `COC(=O)Oc1cc(CN/C=C2\C(=O)NC(=O)c3ccc(Br)cc32)ccc1OC` [compound 83, 5-({[(Z)-(6-Bromo-1,3-dioxo-2,3-dihydroisoquinolin-4(1H)-ylidene)methyl]amino}methyl)-2-methoxyphenyl methyl carbonate], for which the pIC50 with MCF-7 (three days) is 4.52; in the assay with BT474 (Homo sapiens, BT-474, 144 h, BT474 cells, SRB, 6 days; read-out: In Vitro Cellular Activity IC50 BT474), 5.49; in the assay with LoVo (three days) it was 5.59; in the assay with HCT-116 (three days) it was 5.35.
